The text below walks through data of PubChem BioAssay (NCI).

Holding throughout (test): NCI anticancer screen, dose series, 48 h
The subject of test [1] is EKVX NSCLC.
For test [2], the system named is HOP-62 NSCLC.
For test [3], the system named is HOP-92 NSCLC.
For test [4], the system named is IGROV1 ovarian.
In test [5] the test system is NCI-H460 lung.
The test system of test [6] is OVCAR-8 ovarian.
In test [7] the test system is SK-OV-3 ovarian.
Test [8] deals with SW-620 colon.
For test [9], the system named is TK-10 renal.
For test [10], the system named is UO-31 renal.

Several values for one entry are separate records, joined by “and”; a condition that tells them apart may be missing. Identical values can stand only once.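 Exposure lasted 48 hours, with cells grown in 96-well plates and compounds tested at five concentrations. GI50 marks 50% less growth. At the TGI there is no net growth.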

Consider `CCc1ccc(Oc2nccc(-c3c(-c4ccc(F)cc4)ncn3C3CCNCC3)n2)cc1`, for which the GI50 in [1] is 7.2 µM; in test [2], 4.13 µM; in test [3], 1.17 µM; in test [4], 4.71 µM; in test [5], 4.28 µM; in test [6] it was 4.7 µM. For the same compound, the GI50 in test [7] is 4.37 µM; in test [8] it was 4.35 µM; in test [9], 4.24 µM; in test [10], 3.63 µM. Further, the TGI stood at 14.2 µM in test [1]; 8.53 µM in test [2]; 9.53 µM in [3]; 12.1 µM in test [4]; 8.49 µM in test [5]; 10.6 µM in [6]. The TGI turned out to be 9.21 µM in [7], 8.74 µM in test [8], 7.93 µM in test [9] and 9.5 µM in test [10].

In the case of `COC(=O)CSc1n[nH]c(-c2ccccc2)n1`, the TGI in [1], in test [2], in test [3], in test [4], in [5] and in [6] was > 100 µM throughout. Further, the TGI in [7], in test [8], in test [9] and in test [10] was > 100 µM in each case.

On to `COc1ccc(Oc2nc(Nc3ccc(N4CCOCC4)cc3)ncc2NC(=O)Nc2cc(OC)cc(OC)c2)cc1`, for which the GI50 was 7.56 µM in test [1]; 5.48 µM in test [2]; 1.26 µM in test [3]; 4.45 µM in [4]; 1.31 µM in [5]; 4.65 µM in test [6]. The GI50 was 7.86 µM in [7], 3.17 µM in [8], 6.58 µM in [9] and 5.33 µM in test [10]. For the same compound, the TGI in test [1] was > 33.3 µM; in test [2] it was 22.2 µM; in [3], 5.1 µM; in test [4], 13.9 µM; in test [5], 5.72 µM; in test [6], > 33.3 µM. Further, the TGI in test [7] was 25.6 µM; in [8], > 33.3 µM; in [9], > 33.3 µM; in test [10] it was 24.8 µM.

As for `Cc1ccc2nc3sc(=O)sc3nc2c1`, the TGI in [1] turned out to be 27.2 µM; in test [2], 30.6 µM; in test [3] it was 28.9 µM; in test [4], 31.7 µM; in test [5] it was 26.6 µM; in test [6], 28.6 µM. Further, the TGI in test [7] was found to be 34.6 µM; in test [8], 67.9 µM; in test [9], 30 µM; in [10] it was 28.9 µM.

In the case of `COc1ccc2oc(-c3cc4cc(OC)ccc4o3)cc2c1`, the TGI in [1], in test [2], in test [3], in test [4], in test [5] and in test [6] was > 100 µM each time. Further, the TGI in [7], in [8], in test [9] and in test [10] was > 100 µM in each case.

As for `Cc1cc(N2CCN(C)CC2)nc(N(CCNc2ccnc3cc(Cl)ccc23)Cc2ccco2)n1`, the GI50 in test [1] is 5.58 µM; in test [2], 2.63 µM; in [3], 3.1 µM; in [4], 2.91 µM; in test [5], 3.52 µM; in test [6], 5.33 µM. In addition, the GI50 in test [7] is 10.4 µM; in [8], 3.04 µM; in [9], 2.8 µM; in test [10], 2.66 µM. For the same compound, the TGI in [1] was 19.7 µM; in [2] it was 9.73 µM; in test [3] it was 14.9 µM; in [4] it was 12.2 µM; in [5], 11.8 µM; in [6], 19.8 µM. For the same compound, the TGI was 22.1 µM in test [7], 12.4 µM in test [8], 11.4 µM in test [9] and 11.9 µM in [10].

For the compound `COc1ccc(C2=NNC(c3cc(Cc4ccc(O)c(C5CC(c6ccc(OC)cc6)=NN5)c4)ccc3O)C2)cc1` (stereo not given), the GI50 in [1] is 23.3 µM; in test [2], 8.64 µM; in [3], 8.28 µM; in test [4], 13.7 µM; in [5] it was 4.88 µM; in test [6], 6.36 µM. Besides, the GI50 is 31.6 µM in test [7], 7.96 µM in test [8], 19.6 µM in [9] and 4.29 µM in [10]. The TGI in test [1], in test [2], in test [3], in test [4], in [5] and in [6] was > 100 µM in each case. The TGI in test [7], in [8], in [9] and in test [10] was > 100 µM in each case.

Take `Cc1cc2oc(=O)c(Cl)c(Cl)c2c(C)c1Cl`: the TGI was 34.5 µM in test [1]; 66 µM in test [2]; 7.45 µM in [3]; 15.8 µM in test [4]; 59.9 µM in [5]; 10.4 µM in test [6]. The TGI in test [7] was 27.6 µM; in [8], 2.94 µM; in test [9], 28.3 µM; in test [10], 25.3 µM.

`O=C(NC1CCNCC1)c1[nH]ncc1NC(=O)c1c(Cl)cccc1Cl`: the GI50 is 0.998 µM in [1]; 0.451 µM and 0.414 µM in test [2]; 0.323 µM and 0.222 µM in test [3]; 0.681 µM and 0.362 µM in test [4]; 0.338 µM and 0.381 µM in [5]; 0.659 µM and 0.66 µM in [6]. For the same compound, the GI50 is 0.784 µM and 1.42 µM in [7]; 0.365 µM and 0.425 µM in [8]; 1.49 µM and 1.44 µM in [9]; 16.7 µM and > 7.2 µM in [10]. In addition, the TGI in test [1] is > 10 µM; in [2], > 100 µM; in [3], 0.671 µM; in test [4], > 55.2 µM; in test [5] it was > 45.6 µM; in test [6], > 100 µM. In addition, the TGI in test [7] was > 100 µM; in [8], > 10 µM; in test [9], 6.93 µM and > 10 µM; in test [10], > 76.6 µM.

For the compound `NC(Cn1ccc(=O)c(O)c1)C(=O)O` (stereo not given), the TGI in test [1], in test [2], in test [3], in test [4], in test [5] and in [6] was > 100 µM throughout. Besides, the TGI in test [7], in test [8], in test [9] and in [10] was > 100 µM in each case.

For the compound `O=Cc1c[nH]c2ccc(-c3csc4ccccc34)cc12`, the GI50 in test [1] is 2.75 µM; in test [2], 3.06 µM; in [3], 7.06 µM; in [4] it was 3.81 µM; in test [5] it was 3.46 µM; in test [6] it was 3.47 µM. Moreover, the GI50 in test [7] was 5.34 µM; in test [8], 4.31 µM; in [9], 3.13 µM; in test [10], 8.04 µM. For the same compound, the TGI is > 100 µM in test [1]; 39.9 µM in test [2]; 84.7 µM in [3]; 59.9 µM in test [4]; > 100 µM in test [5]; > 100 µM in test [6]. The TGI is > 100 µM in test [7], > 100 µM in [8], 16.7 µM in [9] and > 100 µM in test [10].

Turning to `S=C(Nc1ccc(Cl)cc1)SC1CCCCC1`, the TGI in [1] is 47 µM; in test [2], 87.5 µM; in test [3], 71.2 µM; in test [4], 54.2 µM; in [5], 86.7 µM; in [6] it was > 100 µM. Moreover, the TGI in [7] is 94.9 µM; in test [8] it was > 100 µM; in [9], > 100 µM; in [10], > 100 µM.

With `COc1cccc(C(C#N)NC23CC4CC(CC(C4)C2)C3)c1` (stereo not given), the TGI in test [1], in test [2], in test [3], in test [4], in test [5] and in test [6] was > 100 µM in each case. The TGI in test [7], in test [8], in test [9] and in [10] was > 100 µM each time.

`CC(C)(C)C1CCC(CI)(N=[N+]=[N-])CC1` (stereo not given): the TGI in [1], in test [2], in test [3], in test [4], in [5] and in test [6] was > 100 µM each time. For the same compound, the TGI in [7], in test [8], in test [9] and in test [10] was > 100 µM each time.

`Cc1ccc(S(=O)(=O)Nc2cccc(C)c2C)cc1`: the TGI in [1], in [2], in test [3], in [4], in test [5] and in [6] was > 100 µM throughout. Moreover, the TGI in test [7], in [8], in [9] and in [10] was > 100 µM in each case.

Regarding `NC(Cc1ccc(O)cc1)C(=O)N/N=C/c1ccc(N(CCCl)CCCl)cc1` (stereo not given), the GI50 was 24.2 µM in test [1]; 11.1 µM in test [2]; 21.4 µM in test [3]; 11.5 µM in test [4]; 0.647 µM in test [5]; 5.58 µM in test [6]. The GI50 was 47.9 µM in [7], 16 µM in test [8], 25.2 µM in test [9] and 3.95 µM in test [10]. The TGI in [1] is > 100 µM; in test [2], > 100 µM; in [3], > 100 µM; in test [4], > 100 µM; in test [5] it was 26.7 µM; in [6], 55 µM. In addition, the TGI is > 100 µM in test [7], > 100 µM in test [8], > 100 µM in test [9] and 23.6 µM in [10].

For `CC1=C(C(=O)Nc2cccc(C(F)(F)F)c2)C(c2ccccc2F)C(C(=O)Nc2cccc(C(F)(F)F)c2)=C(C)N1`, the TGI in [1] stood at 17.5 µM; in test [2], 26.2 µM; in test [3] it was 9.11 µM; in test [4] it was 43.7 µM; in test [5], 21.8 µM; in test [6] it was 28.2 µM. In addition, the TGI in test [7] was 25.9 µM; in test [8], 22.7 µM; in [9], 25.7 µM; in test [10] it was 17.3 µM.

Consider `O=c1c(-c2ccc3c(c2)OCO3)coc2c(CO)c(O)ccc12`, for which the GI50 is 2.79 µM in [1]; 2.07 µM in test [2]; 2.02 µM in test [3]; 2.01 µM in test [4]; 2.6 µM in test [5]; 4.42 µM in [6]. Also, the GI50 is 2.41 µM in test [7], 4.06 µM in test [8], 2.28 µM in test [9] and 2.89 µM in [10]. The TGI in test [1] amounted to 8.81 µM; in test [2], 5.01 µM; in test [3], 4.86 µM; in [4] it was 4.93 µM; in test [5] it was 7.85 µM; in [6], 30.5 µM. In addition, the TGI in test [7] stood at 6.39 µM; in test [8], 18.5 µM; in test [9] it was 6.78 µM; in [10], 12 µM.

For the compound `NS(=O)(=O)c1cccc(-c2cc3ccncc3cc2OCc2ccccc2)c1`, the GI50 is 9.67 µM in test [1]; 11.6 µM in test [2]; 4.39 µM in test [3]; > 20.7 µM in test [4]; 11.7 µM in test [5]; 10.1 µM in [6]. Moreover, the GI50 in [7] is > 18.5 µM; in test [8] it was 9.92 µM; in [9], 9.77 µM; in [10], 5.76 µM. Also, the TGI in [1], in [2], in test [3], in [4], in test [5] and in [6] was > 25 µM each time. In addition, the TGI is > 25 µM in [7], > 25 µM in test [8], > 25 µM in test [9] and > 21.4 µM in [10].
